Results published in ChEMBL document CHEMBL4665812, “Targeting Her2-insYVMA with Covalent Inhibitors-A Focused Compound Screening and Structure-Based Design Approach” (J Med Chem, 2020).
Values after ≈ are worked out from the molar mass of the structure shown. Active and inactive are the calls of the source. The calls are words filed in the database; no cut-off is given here.

Key:
[1] = Intrinsic clearance in mouse liver microsomes at 1 uM measured up to 60 mins by LC-MS analysis; format: ADME, Microsome; conditions: read-out: CLH
[2] = Ratio of apparent permeability across basolateral to apical over apical to basolateral side in human Caco2 cells at 5 uM after 2 hrs by transwell assay; format: ADME, cell-based; conditions: Caco-2
[3] = Apparent permeability across apical side to basolateral side in human Caco-2 cells at 5 uM after 2 hrs by transwell assay; format: ADME, cell-based; conditions: read-out: permeability
[4] = Stability of compound in mouse plasma assessed as parent compound remaining at 5 uM measured for 1 hr by LC-MS analysis; format: ADME, cell-free; conditions: read-out: Stabilty
[5] = Stability of compound in human plasma assessed as parent compound remaining at 5 uM measured for 1 hr by LC-MS analysis; format: ADME, cell-free; conditions: read-out: Stabilty
[6] = Kinetic solubility of compound in HEPES buffer a pH 7.4 at 500 uM after 90 mins; format: physicochemical; conditions: read-out: Kinetic_solubility
[7] = Solubility of compound in aqueous buffer at pH 7.4 after 120 mins by turbidometric assay; format: physicochemical
[8] = target: Epidermal growth factor receptor (Homo sapiens, UniProt P00533, L858R/T790M); test: Inhibition of human N-terminal GST-tagged EGFR L858R/T790M mutant (669 to 1210 residues) expressed in baculovirus infected Sf9 insect cells using TK as substrate preincubated for 30 mins followed by substrate addition and measured after 20 mins by HTRF assay
[9] = target: Epidermal growth factor receptor (Homo sapiens, UniProt P00533, L858R); test: Inhibition of human N-terminal GST-tagged EGFR L858R mutant (669 to 1210 residues) expressed in baculovirus infected Sf9 insect cells using TK as substrate preincubated for 30 mins followed by substrate addition and measured after 15 mins by HTRF assay
[10] = target: Epidermal growth factor receptor (Homo sapiens, UniProt P00533); test: Inhibition of human N-terminal GST-tagged EGFR (669 to 1210 residues) expressed in baculovirus infected Sf9 insect cells using TK as substrate preincubated for 30 mins followed by substrate addition and measured after 25 mins by HTRF assay
[11] = Inhibition of C-terminal His6-tagged HER2-A775_G776insYVMA mutant (703 to 1029 residues) (unknown origin) expressed in Sf9 insect cells assessed as Kinact using TK as substrate measured up to 2 to 40 mins by fluorescence assay; conditions: Homo sapiens, time min 2-40
[12] = Inhibition of C-terminal His6-tagged HER2-A775_G776insYVMA mutant (703 to 1029 residues) (unknown origin) expressed in Sf9 insect cells using TK as substrate measured up to 2 to 40 mins by fluorescence assay; parameters: species or system Homo sapiens
[13] = target: T1, Receptor tyrosine-protein kinase erbB-2 (Homo sapiens, UniProt P04626); test: Inhibition of HER2 in human H1781 cells assessed as reduction in HER2 phosphorylation at Y1248 residues at 100 to 500 nM after 1 hrs by Western blot analysis; format: cell-based; conditions: dose nM 100-500, time 1.0 hrs
[14] = target: T1, Receptor tyrosine-protein kinase erbB-2; test: Inhibition of HER2 in human H1781 cells assessed as reduction in HER2 phosphorylation at Y1221/1222 residues at 100 to 500 nM after 1 hrs by Western blot analysis; format: cell-based; conditions: dose nM 100-500, time 1.0 hrs
[15] = Inhibition of HER2-A775_G776insYVMA mutant (unknown origin) expressed in mouse BaF3 cells assessed as reduction in HER2 induced cell viability after 96 hrs by CellTiter-Glo assay; format: cell-based; conditions: BaF3, 96 h
[16] = cells; format: cell-based; conditions: Homo sapiens, NCI-H1781, 96 h
Description: Inhibition of HER2-G776delinsVC mutant (unknown origin) expressed in human H1781 cells assessed as reduction in HER2 induced cell viability after 96 hrs by CellTiter-Glo assay

[17] = target: T1, Receptor tyrosine-protein kinase erbB-2; test: Inhibition of C-terminal His6-tagged HER2 (703 to 1029 residues) (unknown origin) expressed in Sf9 insect cells using TK as substrate preincubated for 30 mins followed by substrate addition and measured after 60 mins in presence of XL665-labeled streptavidin by HTRF assay
[18] = Intrinsic clearance in human liver microsomes at 1 uM measured up to 50 mins by LC-MS analysis; format: ADME, Microsome; conditions: read-out: CLH
[19] = Apparent permeability across basolateral side to apical side in human Caco-2 cells at 5 uM after 2 hrs by transwell assay; format: ADME, cell-based; conditions: read-out: permeability
[20] = Intrinsic clearance in mouse liver microsomes at 3 uM measured up to 60 mins by LC-MS analysis; format: ADME, Microsome; conditions: read-out: CLH
[21] = Intrinsic clearance in human liver microsomes at 3 uM measured up to 50 mins by LC-MS analysis; format: ADME, Microsome; conditions: read-out: CLH
[22] = organism: Homo sapiens; test: Inhibition of S6 phosphorylation at T202/204 residues in human H1781 cells after 1 hrs by Western blot analysis; format: cell-based; conditions: dose nM 10-500, time 1.0 hrs
[23] = organism: Homo sapiens; test: Inhibition of MAPK phosphorylation at T202/204 residues in human H1781 cells after 1 hrs by Western blot analysis; format: cell-based; conditions: dose nM 10-500, time 1.0 hrs
[24] = target: Serine/threonine-protein kinase AKT (Homo sapiens) (UniProt P31751+Q9Y243+P31749); test: Inhibition of AKT phosphorylation at S473 residues in human H1781 cells after 1 hrs by Western blot analysis; format: cell-based; conditions: dose nM 10-500, time 1.0 hrs
[25] = target: T1, Receptor tyrosine-protein kinase erbB-2; test: Inhibition of HER2 in human H1781 cells assessed as reduction in HER2 phosphorylation at Y1248 residues after 1 hrs by Western blot analysis; format: cell-based; conditions: dose nM 10-500, time 1.0 hrs
[26] = target: T1, Receptor tyrosine-protein kinase erbB-2; test: Inhibition of HER2 in human H1781 cells assessed as reduction in HER2 phosphorylation at Y1221/1222 residues after 1 hrs by Western blot analysis; format: cell-based; conditions: dose nM 10-500, time 1.0 hrs

Epidermal growth factor receptor (Homo sapiens, UniProt P00533, L858R), sequence (P00533 25-1210 L858R limits assumed): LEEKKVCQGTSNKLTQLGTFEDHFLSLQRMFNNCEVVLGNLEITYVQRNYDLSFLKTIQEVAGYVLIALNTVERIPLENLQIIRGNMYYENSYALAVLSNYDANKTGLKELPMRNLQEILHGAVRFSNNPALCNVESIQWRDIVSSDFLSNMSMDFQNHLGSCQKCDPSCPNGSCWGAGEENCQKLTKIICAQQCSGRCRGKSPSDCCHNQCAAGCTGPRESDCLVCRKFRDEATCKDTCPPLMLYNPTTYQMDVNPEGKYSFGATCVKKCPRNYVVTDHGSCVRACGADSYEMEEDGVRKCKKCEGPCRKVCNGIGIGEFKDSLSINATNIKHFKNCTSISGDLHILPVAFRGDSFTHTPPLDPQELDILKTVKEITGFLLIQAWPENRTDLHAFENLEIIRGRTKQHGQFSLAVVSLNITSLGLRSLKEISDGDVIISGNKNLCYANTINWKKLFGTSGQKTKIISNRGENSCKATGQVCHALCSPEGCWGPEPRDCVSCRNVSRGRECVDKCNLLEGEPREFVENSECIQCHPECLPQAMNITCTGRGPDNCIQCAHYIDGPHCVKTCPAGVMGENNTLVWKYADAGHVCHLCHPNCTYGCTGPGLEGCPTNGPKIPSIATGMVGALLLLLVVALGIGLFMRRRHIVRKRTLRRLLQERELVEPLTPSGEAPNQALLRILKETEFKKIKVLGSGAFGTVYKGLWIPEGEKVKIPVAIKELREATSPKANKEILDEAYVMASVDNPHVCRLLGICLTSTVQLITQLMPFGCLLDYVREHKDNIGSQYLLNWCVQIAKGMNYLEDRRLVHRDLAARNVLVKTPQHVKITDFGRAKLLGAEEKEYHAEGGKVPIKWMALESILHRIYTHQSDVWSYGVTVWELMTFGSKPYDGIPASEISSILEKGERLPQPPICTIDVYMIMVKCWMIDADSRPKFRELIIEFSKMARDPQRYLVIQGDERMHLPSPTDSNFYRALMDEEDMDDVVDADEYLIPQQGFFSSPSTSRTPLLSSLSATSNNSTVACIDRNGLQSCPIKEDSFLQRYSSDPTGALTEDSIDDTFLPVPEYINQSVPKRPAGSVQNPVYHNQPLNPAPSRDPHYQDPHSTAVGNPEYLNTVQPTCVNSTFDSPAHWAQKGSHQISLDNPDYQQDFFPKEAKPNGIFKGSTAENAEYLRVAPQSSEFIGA
Epidermal growth factor receptor (Homo sapiens, UniProt P00533), sequence (P00533 whole entry, the tested form may be a part): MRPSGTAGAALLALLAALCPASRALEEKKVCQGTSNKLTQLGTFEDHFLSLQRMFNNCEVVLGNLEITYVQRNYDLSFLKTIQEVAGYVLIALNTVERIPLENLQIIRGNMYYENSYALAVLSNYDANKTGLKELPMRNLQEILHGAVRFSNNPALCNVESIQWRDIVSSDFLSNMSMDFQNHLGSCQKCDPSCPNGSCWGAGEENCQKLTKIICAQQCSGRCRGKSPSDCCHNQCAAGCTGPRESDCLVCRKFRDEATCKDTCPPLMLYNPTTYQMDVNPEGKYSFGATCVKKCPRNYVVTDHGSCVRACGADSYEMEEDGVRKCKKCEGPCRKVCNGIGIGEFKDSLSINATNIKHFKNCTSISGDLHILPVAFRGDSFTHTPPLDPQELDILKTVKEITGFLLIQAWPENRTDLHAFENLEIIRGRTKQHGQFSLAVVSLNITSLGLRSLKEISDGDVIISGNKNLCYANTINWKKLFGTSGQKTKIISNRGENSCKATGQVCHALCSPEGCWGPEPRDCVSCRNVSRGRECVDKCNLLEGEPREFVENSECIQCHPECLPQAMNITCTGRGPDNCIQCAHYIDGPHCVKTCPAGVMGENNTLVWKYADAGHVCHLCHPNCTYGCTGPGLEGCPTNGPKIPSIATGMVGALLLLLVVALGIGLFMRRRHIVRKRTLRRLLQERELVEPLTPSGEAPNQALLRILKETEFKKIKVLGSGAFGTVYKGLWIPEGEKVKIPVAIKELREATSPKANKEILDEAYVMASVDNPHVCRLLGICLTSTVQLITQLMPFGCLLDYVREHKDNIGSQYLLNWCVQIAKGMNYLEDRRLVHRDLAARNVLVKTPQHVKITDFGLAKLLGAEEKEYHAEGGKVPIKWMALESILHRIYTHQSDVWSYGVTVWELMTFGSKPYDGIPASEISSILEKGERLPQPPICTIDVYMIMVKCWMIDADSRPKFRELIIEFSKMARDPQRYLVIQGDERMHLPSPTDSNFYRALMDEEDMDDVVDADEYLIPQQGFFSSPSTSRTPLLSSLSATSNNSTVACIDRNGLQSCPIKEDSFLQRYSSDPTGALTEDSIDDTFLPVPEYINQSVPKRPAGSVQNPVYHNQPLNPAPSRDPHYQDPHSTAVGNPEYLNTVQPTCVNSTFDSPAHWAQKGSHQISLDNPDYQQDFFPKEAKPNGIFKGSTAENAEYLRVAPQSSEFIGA
T1 sequence (P04626 whole entry): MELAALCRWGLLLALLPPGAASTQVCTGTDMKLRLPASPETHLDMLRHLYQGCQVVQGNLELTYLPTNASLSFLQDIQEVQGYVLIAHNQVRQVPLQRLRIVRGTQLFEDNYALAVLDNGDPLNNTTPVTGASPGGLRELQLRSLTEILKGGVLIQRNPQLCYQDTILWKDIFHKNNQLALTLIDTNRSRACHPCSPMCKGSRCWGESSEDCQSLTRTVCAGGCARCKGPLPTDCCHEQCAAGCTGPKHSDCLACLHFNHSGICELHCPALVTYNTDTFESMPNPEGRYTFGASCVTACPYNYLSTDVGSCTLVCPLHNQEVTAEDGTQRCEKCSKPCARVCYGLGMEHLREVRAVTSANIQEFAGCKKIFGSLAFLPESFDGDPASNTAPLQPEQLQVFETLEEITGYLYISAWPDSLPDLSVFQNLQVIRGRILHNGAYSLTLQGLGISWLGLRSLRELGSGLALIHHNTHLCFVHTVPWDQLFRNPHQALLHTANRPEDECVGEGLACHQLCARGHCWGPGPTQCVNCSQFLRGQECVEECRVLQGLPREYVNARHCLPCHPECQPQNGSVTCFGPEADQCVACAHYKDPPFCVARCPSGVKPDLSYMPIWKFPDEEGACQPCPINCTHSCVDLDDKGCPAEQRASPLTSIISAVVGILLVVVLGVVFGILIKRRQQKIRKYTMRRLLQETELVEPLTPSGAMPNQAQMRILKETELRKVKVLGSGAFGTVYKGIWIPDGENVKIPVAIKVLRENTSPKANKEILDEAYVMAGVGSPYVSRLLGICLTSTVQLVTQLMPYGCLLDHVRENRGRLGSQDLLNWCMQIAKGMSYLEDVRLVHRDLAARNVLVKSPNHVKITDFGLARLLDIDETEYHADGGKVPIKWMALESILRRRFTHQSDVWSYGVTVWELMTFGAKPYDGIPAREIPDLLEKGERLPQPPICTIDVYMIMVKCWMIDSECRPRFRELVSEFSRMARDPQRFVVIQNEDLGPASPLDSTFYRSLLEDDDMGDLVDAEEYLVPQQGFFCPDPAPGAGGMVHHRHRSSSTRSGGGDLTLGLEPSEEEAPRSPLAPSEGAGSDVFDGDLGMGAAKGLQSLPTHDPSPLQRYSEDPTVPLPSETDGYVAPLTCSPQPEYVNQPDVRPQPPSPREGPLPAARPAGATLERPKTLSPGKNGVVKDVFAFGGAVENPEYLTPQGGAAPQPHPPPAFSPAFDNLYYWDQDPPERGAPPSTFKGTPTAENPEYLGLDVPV
Serine/threonine-protein kinase AKT (Homo sapiens), sequence (P31749 whole entry, looked up): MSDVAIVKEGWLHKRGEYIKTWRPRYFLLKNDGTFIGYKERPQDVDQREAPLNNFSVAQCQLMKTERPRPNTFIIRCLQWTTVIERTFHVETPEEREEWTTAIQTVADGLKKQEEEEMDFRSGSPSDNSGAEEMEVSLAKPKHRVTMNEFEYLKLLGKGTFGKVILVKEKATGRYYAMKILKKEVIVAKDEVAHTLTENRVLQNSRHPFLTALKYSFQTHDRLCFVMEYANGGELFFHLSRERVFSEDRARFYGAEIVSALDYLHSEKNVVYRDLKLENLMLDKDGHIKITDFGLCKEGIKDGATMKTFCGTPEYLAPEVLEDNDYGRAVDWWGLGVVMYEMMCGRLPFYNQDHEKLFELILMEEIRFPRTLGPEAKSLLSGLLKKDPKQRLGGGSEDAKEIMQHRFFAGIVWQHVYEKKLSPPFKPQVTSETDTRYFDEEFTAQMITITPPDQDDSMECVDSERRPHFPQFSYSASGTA
Serine/threonine-protein kinase AKT (Homo sapiens), sequence (P31751 whole entry, looked up): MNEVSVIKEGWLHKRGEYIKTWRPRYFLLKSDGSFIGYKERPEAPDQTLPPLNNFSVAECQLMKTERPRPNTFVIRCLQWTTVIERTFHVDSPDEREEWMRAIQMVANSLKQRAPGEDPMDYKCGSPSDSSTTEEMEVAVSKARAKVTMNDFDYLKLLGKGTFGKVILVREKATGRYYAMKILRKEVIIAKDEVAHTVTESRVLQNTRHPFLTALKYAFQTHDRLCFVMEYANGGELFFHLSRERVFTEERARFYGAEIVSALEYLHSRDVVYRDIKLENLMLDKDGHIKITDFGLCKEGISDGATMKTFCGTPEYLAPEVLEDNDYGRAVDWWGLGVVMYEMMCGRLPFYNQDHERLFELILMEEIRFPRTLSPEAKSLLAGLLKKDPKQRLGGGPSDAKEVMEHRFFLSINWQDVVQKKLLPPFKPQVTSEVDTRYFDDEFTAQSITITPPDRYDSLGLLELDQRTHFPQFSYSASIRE
Serine/threonine-protein kinase AKT (Homo sapiens), sequence (Q9Y243 whole entry, looked up): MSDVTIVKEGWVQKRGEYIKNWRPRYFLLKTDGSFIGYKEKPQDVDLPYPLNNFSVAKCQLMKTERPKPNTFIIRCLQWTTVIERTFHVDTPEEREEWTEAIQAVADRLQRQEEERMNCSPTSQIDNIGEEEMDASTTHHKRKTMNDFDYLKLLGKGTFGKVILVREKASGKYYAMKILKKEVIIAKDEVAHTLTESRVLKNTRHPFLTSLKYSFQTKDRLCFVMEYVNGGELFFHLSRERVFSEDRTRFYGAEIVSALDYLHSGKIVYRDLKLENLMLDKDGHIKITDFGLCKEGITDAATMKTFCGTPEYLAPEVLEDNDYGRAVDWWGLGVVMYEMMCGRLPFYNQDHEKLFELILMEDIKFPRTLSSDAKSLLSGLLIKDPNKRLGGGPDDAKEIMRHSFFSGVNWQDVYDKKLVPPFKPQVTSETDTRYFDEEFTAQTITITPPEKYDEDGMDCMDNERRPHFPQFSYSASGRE

Structure (SMILES)	microsomal CLint at 1 µM [1] [µL/min/mg]	efflux ratio at 2 h, 5 µM [2]	Papp A→B at 2 h, 5 µM [3] [×10⁻⁶ cm/s]	remaining at 1 h, 5 µM [4] [%]	remaining at 1 h, 5 µM [5] [%]	solubility kinetic at 1.5 h, 500 µM [6] [µM]	solubility kinetic at 2 h [7] [µM]	IC50 [8] [nM]	IC50 [9] [nM]	IC50 [10] [nM]	Kinact [11] [min⁻¹]	Ki [12] [nM]	inhibition [13]	inhibition [14]	IC50 [15] [nM]	IC50 [16] [nM]	IC50 [17] [nM]	microsomal CLint at 1 µM [18] [µL/min/mg]	Papp B→A at 2 h, 5 µM [19] [×10⁻⁶ cm/s]	microsomal CLint at 3 µM [20] [µL/min/mg]	further results
C=CC(=O)Nc1cc(-c2c[nH]c3ncnc(Nc4ccc(OCc5ccccn5)c(Cl)c4)c23)ccc1OCCN(C)C	866	11.4	2.1	0.8	74.4	60.6 (≈ 35.4 µg/mL)	100 (≈ 58.4 µg/mL)	2	0.1	0.09	0.212	49	Active	Active	120	164	15	64.2	23.9	–	–
CCOc1cc2ncc(C#N)c(Nc3ccc(OCc4ccccn4)c(Cl)c3)c2cc1NC(=O)/C=C/CN(C)C [NERATINIB]	–	–	0.09	97.4	80.7	1.2 (≈ 0.668 µg/mL)	> 10	–	–	–	–	6.3	–	–	< 14	148	–	–	0.4	126	microsomal CLint at 3 µM [21]: 42 µL/min/mg
C=CC(=O)Nc1cc(-c2c[nH]c3ncnc(Nc4ccc5c(cnn5Cc5ccccc5)c4)c23)ccc1OCCO	603	4.5	1.2	88.4	90.9	16.8 (≈ 9.17 µg/mL)	30 (≈ 16.4 µg/mL)	6	0.1	0.07	0.138	67	Active	Active	159	508	14	66	5.2	–	–
C=CC(=O)Nc1cccc(-c2c[nH]c3ncnc(Nc4ccc(OCc5ccccn5)c(Cl)c4)c23)c1	–	0.3	1.9	49	79.8	–	30 (≈ 14.9 µg/mL)	3.9	0.1	0.08	0.136	54	–	–	83	161	11	–	0.6	125	microsomal CLint at 3 µM [21]: 27.7 µL/min/mg; inhibition [22]: Dose-dependent effect; inhibition [23]: Dose-dependent effect; inhibition [24]: Dose-dependent effect; inhibition [25]: Dose-dependent effect; inhibition [26]: Dose-dependent effect
C=CC(=O)Nc1cccc(-c2c[nH]c3ncnc(Nc4ccc(CN5C(=O)c6ccccc6C5=O)cc4)c23)c1	770	0.2	0.5	81.3	78.1	8.3 (≈ 4.27 µg/mL)	30 (≈ 15.4 µg/mL)	33	0.2	0.4	0.132	143	–	–	381	419	11	96.3	0.1	–	inhibition [22]: Dose-dependent effect; inhibition [23]: Dose-dependent effect; inhibition [24]: Dose-dependent effect; inhibition [25]: Dose-dependent effect; inhibition [26]: Dose-dependent effect
